The values below come from patent publication US4755594A, “N^6 -substituted adenosines” (Warner-Lambert Company, priority 1986, dated 1988).

pIC50: −log10 of the molar value.

A short description of data set [1]: Mouse Activity and Screen Test Procedure (MAST): inhibition of spontaneous locomotion. The class given is in vivo, Swiss-Webster male mice. To be noted: IP, 1 h, read-out: Inhibition of motor activity. From the text: (§1) The compounds of the invention are new chemical substances which are useful as pharmaceutical agents for the treatment of psychoses. The antipsychotic activity of representative compounds of the invention was established by the Mouse Activity and Screen Test Procedure (MAST) described below. Animals Nine unfasted Swiss-Webster male mice weighing 20-30 g are equally divided into three groups for each drug dose to be tested. That is, data for each dose level was generated by three separate groups of three mice each. Drugs A minimum of three dose levels (10, 30, and 100 mg/kg) are tested for each drug. Treatments are administered intraperitoneally one hour prior to testing. All dosages are calculated as parent compound and given in volumes of 10 ml/kg. Compounds are dissolved or suspended in 0.2% Methocel. Control animals are injected with Methocel. Testing A two part testing procedure is started one hour postinjection. First, the screen test (ST) is performed (see Pharmac. Biochem. Behav. 6, 351-353, 1977). Briefly this test consists of placing mice on individual wire screens which are then rotated 180 degrees at the start of a 60 second observation period. The number of mice falling off the inverted screen is recorded. Immediately following the screen test, the final phase of testing is initiated by placing each group of three mice in one actophotometer (Life Sciences, 22, 1067-1076, 1978). The actophotometer consists of a cylindrical chamber whose center is occupied by another cylinder which contains the illumination for six photocells located on the perimeter of the chamber. Six light-beam interruptions equal one count. Locomotor activity is recorded by computer at ten minute intervals for 60 minutes. Data The data obtained from the screen test are expressed as percent of mice falling off the screen. Data derived from locomotor activity of drug treated mice are compared to the activity of vehicle treated animals and are expressed as percent inhibition of spontaneous locomotion. All percentages reported for inhibition of locomotion (LI) are based upon data accumulated for one hour. Both phases of testing are graded: A=60-100%; C=31-59%; and N=0-30%. An overall dose rating is obtained by the following criteria: […]

A short description of data set [2]: Mouse Activity and Screen Test Procedure (MAST): screen test. To be noted: IP. The class given is in vivo, Swiss-Webster male mice.
Text: as §1, with “recorded.” for “recorded. Immediately following the screen test, the final phase of testing is initiated by placing each group of three mice in one actophotometer (Life Sciences, 22, 1067-1076, 1978). The actophotometer consists of a cylindrical chamber whose center is occupied by another cylinder which contains the illumination for six photocells located on the perimeter of the chamber. Six light-beam interruptions equal one count. Locomotor activity is recorded by computer at ten minute intervals for 60 minutes.”

The target of data set [3] is T1, adenosine A1 receptor (Rattus norvegicus, UniProt P25099).
T1 construct: Whole brain minus cerebellum and brainstem from male Long-Evans rats; from tissue; host or cells: whole brain minus cerebellum and brainstem, male Long-Evans rats
T1 sequence (P25099 1-326): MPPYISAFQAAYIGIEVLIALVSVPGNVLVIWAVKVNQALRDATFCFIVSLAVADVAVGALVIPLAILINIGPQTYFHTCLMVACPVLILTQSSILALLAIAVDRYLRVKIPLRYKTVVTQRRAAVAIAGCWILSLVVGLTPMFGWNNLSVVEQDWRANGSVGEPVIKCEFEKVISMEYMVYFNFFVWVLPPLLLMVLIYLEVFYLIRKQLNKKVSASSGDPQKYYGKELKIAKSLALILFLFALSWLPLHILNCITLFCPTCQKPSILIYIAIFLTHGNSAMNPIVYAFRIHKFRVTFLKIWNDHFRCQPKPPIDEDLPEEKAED
Kind of data set: Adenosine Receptor Binding--A1 Receptor Affinity (RBA1), [3H]-CHA, whole brain membranes. The conditions noted are these: read-out: RBA-1 IC50. The procedure: Adenosine Receptor Binding--A1 Receptor Affinity (RBA1 )
Whole brain minus cerebellum and brainstem from male Long-Evans rats (150-200 g) was homogenized in 30 volumes of ice-cold 0.05M Tris-HCl buffer pH 7.7 using a Brinkman Polytron PT-10, (setting number 6 for 20 seconds) and centrifuged for ten minutes at 20,000 xg (Sorvall RC-2), 4° C. The supernatant was discarded, and the pellet was resuspended and centrifuged as before. The pellet was resuspended in 20 ml Tris-HCl buffer containing two International Units/ml of adenosine deaminase (Sigma type III from calf intestinal mucosa), incubated at 37° C. for 30 minutes, then subsequently at 0° C. for ten minutes. The homogenate was again centrifuged, and the final pellet was resuspended in ice-cold 0.05M Tris-HCl buffer pH 7.7 to a concentration of 20 mg/ml original wet tissue weight and used immediately.
Tissue homogenate (10 mg/ml) was incubated in 0.05M Tris-HCl buffer pH 7.7 containing 1.0 nM [^3 H]--N^6 -cyclohexyladenosine ([^3 H]--CHA) with or without test agents in triplicate for one hour at 25° C. Incubation volume was 2 ml. Unbound [^3 H]--CHA was separated by rapid filtration under reduced pressure through Whatman glass fiber (GF/B) filters. The filters were rinsed three times with 5 ml of ice cold 0.05M Tris-HCl buffer pH 7.7. The radio-labeled ligand retained on the filter was measured by liquid scintillation spectrophotometry after shaking the filters for one hour or longer on a mechanical shaker in 10 ml of Beckman Ready-Solv HP scintillation cocktail.
Nonspecific binding was defined as the binding which occurred in the presence of 1 mM theophylline. The concentration of test agent which inhibited 50% of the specific binding (IC50) was determined by nonlinear computer curve fit. The Scatchard plot was calculated by linear regression of the line obtained by plotting the amount of radioligand bound (pmoles/gram of tissue) [formula] Since the amount of radioligand bound was a small fraction of the total amount added, free radioligand was defined as the concentration of (nM) of radioligand added to the incubation mixture. The Hill coefficient was calculated by linear regression of the line obtained by plotting the log of the bound radioligand vs the log of the [formula] The maximal number of binding sites (Bmax) was calculated from the Scatchard plot.

What is called pIC50 is the negative decadic logarithm of the IC50, by convention in mol/L. As for `OC[C@H]1O[C@@H](n2cnc3c(NCC4(c5ccccc5)CC4)ncnc32)[C@H](O)[C@@H]1O` [Example 1, N6-((1-Phenylcyclopropyl)methyl)adenosine], in data set [1], the inhibition in vivo at 0.3 mg/kg was 43%. Besides, in data set [1], the inhibition in vivo at 1 mg/kg is 48%. Further, in data set [1], the inhibition in vivo at 3 mg/kg is 38%. In data set [1], the inhibition in vivo at 10 mg/kg was 92%. The inhibition in vivo at 30 mg/kg in data set [1] was found to be 98%. Besides, the inhibition in vivo at 100 mg/kg in data set [1] (100 mg/kg) stood at 100%. Also, the “Inhibition of screen test failure” value in data set [2] (0.3 mg/kg) is 11%; in data set [2] (1.0 mg/kg), 0%; in data set [2] (3 mg/kg) it was 0%; in data set [2] (10 mg/kg) it was 0%; in data set [2] (30 mg/kg), 22%; in data set [2] (100 mg/kg), 44%. Also, the pIC50 in data set [3] is 7.55.
On to `O[C@@H]1[C@H](O)[C@@H](CCl)O[C@H]1n1cnc2c(NCC3(c4ccccc4)CC3)ncnc21` [Example 5, 5'-Deoxy-5'-chloro-N6-((1-phenylcyclopropyl)methyl)adenosine], for which, in data set [1], the inhibition in vivo at 3 mg/kg was found to be 16%, the inhibition in vivo at 10 mg/kg turned out to be 10% and the inhibition in vivo at 30 mg/kg was -4%. For the same compound, the “Inhibition of screen test failure” value in data set [2] (3 mg/kg) came out at 11%. For the same compound, the “Inhibition of screen test failure” value in data set [2] (10 mg/kg) was 0%. Besides, the “Inhibition of screen test failure” value in data set [2] (30 mg/kg) amounted to 0%. Further, the pIC50 in data set [3] was 7.28.
On to `OC[C@H]1O[C@@H](n2cnc3c(NCC4(c5ccc(Cl)cc5)CC4)ncnc32)[C@H](O)[C@@H]1O` [Example 12, N6-((1-(4-Chlorophenyl)cyclopropyl)methyl)adenosine], for which, in data set [1], the inhibition in vivo at 3 mg/kg is -4%. In addition, the inhibition in vivo at 10 mg/kg in data set [1] is 5%. In data set [1], the inhibition in vivo at 30 mg/kg amounted to 20%. Further, the “Inhibition of screen test failure” value in data set [2] (3 mg/kg), in data set [2] (10 mg/kg) and in data set [2] (30 mg/kg) was 0% each time. In addition, the negative-log IC50 (pIC50) in data set [3] is 7.15.
`OC[C@H]1O[C@@H](n2cnc3c(NCC4(c5cccc(Cl)c5)CC4)ncnc32)[C@H](O)[C@@H]1O` [Example 2, N6-((1-(3-Chlorophenyl)cyclopropyl)methyl)adenosine]: in data set [1], the inhibition in vivo at 3 mg/kg is 19%, the inhibition in vivo at 10 mg/kg was determined as 69% and the inhibition in vivo at 30 mg/kg amounted to 90%. Moreover, in data set [2] (3 mg/kg), the “Inhibition of screen test failure” value worked out at 11%. The “Inhibition of screen test failure” value in data set [2] (10 mg/kg) is 0%. For the same compound, in data set [2] (30 mg/kg), the “Inhibition of screen test failure” value was 0%. Also, in data set [3], the negative-log IC50 (pIC50) is 7.49.
Take `OC[C@H]1O[C@@H](n2cnc3c(NCC4(c5cccs5)CC4)ncnc32)[C@H](O)[C@@H]1O` [Example 3, N6-((1-Thien-2-ylcyclopropyl)methyl)adenosine]: in data set [1] (0.03 mg/kg), the inhibition in vivo at 0.03 mg/kg is 17%. In data set [1] (0.1 mg/kg), the inhibition in vivo at 0.1 mg/kg came out at 40%. Moreover, the inhibition in vivo at 0.3 mg/kg in data set [1] came to 70%. For the same compound, the inhibition in vivo at 1 mg/kg in data set [1] is 85%. The inhibition in vivo at 3 mg/kg in data set [1] is 89%. For the same compound, in data set [1], the inhibition in vivo at 10 mg/kg worked out at 93%. The “Inhibition of screen test failure” value in data set [2] (0.03 mg/kg), in data set [2] (0.1 mg/kg), in data set [2] (0.3 mg/kg), in data set [2] (1.0 mg/kg), in data set [2] (3 mg/kg) and in data set [2] (10 mg/kg) was 0% each time. In data set [3], the pIC50 is 8.14.
In the case of `O[C@@H]1[C@H](O)[C@@H](CCl)O[C@H]1n1cnc2c(NCC3(c4cccs4)CC3)ncnc21` [Example 6, 5'-Chloro-5'-deoxy-N6-((1-thien-2-ylcyclopropyl)methyl)adenosine], in data set [1], the inhibition in vivo at 3 mg/kg is 11%, the inhibition in vivo at 10 mg/kg amounted to 16% and the inhibition in vivo at 30 mg/kg was found to be 51%. Further, the “Inhibition of screen test failure” value in data set [2] (3 mg/kg) turned out to be 0%. In data set [2] (10 mg/kg), the “Inhibition of screen test failure” value stood at 0%. Moreover, in data set [2] (30 mg/kg), the “Inhibition of screen test failure” value was determined as 0%. For the same compound, the pIC50 in data set [3] is 7.74.
With `OC[C@H]1O[C@@H](n2cnc3c(NCC4(c5cccc(Cl)c5)CCC4)ncnc32)[C@H](O)[C@@H]1O` [Example 8, N6-((1-(3-Chlorophenyl)cyclobutyl)methyl)adenosine], in data set [1], the inhibition in vivo at 3 mg/kg is 22%, the inhibition in vivo at 10 mg/kg is 35% and the inhibition in vivo at 30 mg/kg worked out at 73%. Moreover, the “Inhibition of screen test failure” value in data set [2] (3 mg/kg) was found to be 0%. The “Inhibition of screen test failure” value in data set [2] (10 mg/kg) came to 0%. In addition, in data set [2] (30 mg/kg), the “Inhibition of screen test failure” value turned out to be 0%. Besides, in data set [3], the pIC50 was 7.51.
As to `OC[C@H]1O[C@@H](n2cnc3c(NCC4(c5ccccc5)CCCCC4)ncnc32)[C@H](O)[C@@H]1O` [Example 11, N6-((1-Phenylcyclohexyl)methyl)adenosine], the inhibition in vivo at 3 mg/kg in data set [1] turned out to be 15%. Besides, the inhibition in vivo at 10 mg/kg in data set [1] was -10%. Also, the inhibition in vivo at 30 mg/kg in data set [1] is 34%. In addition, the “Inhibition of screen test failure” value turned out to be 11% in data set [2] (3 mg/kg), 0% in data set [2] (10 mg/kg) and 0% in data set [2] (30 mg/kg). In addition, in data set [3], the pIC50 was 6.39.
